From PubChem BioAssay (NCI)
Values joined by “and” are separate entries in the source; they are usually repeats but may differ in a detail not shown here. Equal values may be shown once.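 Five compound concentrations were applied to cells in 96-well plates for 48 hours; endpoints were derived by simple linear interpolation of the resulting dose-response curve. The concentration for 50% growth inhibition is given as GI50. TGI is the concentration that stops growth completely.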

How the values were obtained:
Test in all cases: DTP human tumour cell line panel, 48 h
[1] = tested on: SN12C renal
[2] = tested on: ACHN renal
[3] = tested on: OVCAR-8 ovarian
[4] = tested on: NCI-H522 lung
[5] = tested on: UO-31 renal
[6] = tested on: A549 NSCLC
[7] = tested on: MDA-MB-435
[8] = tested on: NCI-H226 lung
[9] = tested on: TK-10 renal
[10] = tested on: SF-539 CNS
[11] = tested on: SNB-75 CNS
[12] = tested on: LOX IMVI melanoma

Structure (SMILES)	TGI [1] [µM]	TGI [2] [µM]	TGI [3]	TGI [4]	TGI [5] [µM]	TGI [6] [µM]	TGI [7] [µM]	TGI [8] [µM]	TGI [9] [µM]	TGI [10]	TGI [11] [µM]	TGI [12] [µM]	GI50 [1]	GI50 [3]	GI50 [7]	GI50 [9] [µM]
O=[N+]([O-])c1ccc2nc(/C=C(\O)c3ccc(F)cc3)c(/C=C(\O)c3ccc(F)cc3)nc2c1	> 100	36.6	> 100 µM	> 100 µM	> 100	> 100	> 100	89	34.2	56.3 µM	37.5	> 100				
CN(C)Cc1cc(N=Nc2ccccc2)cc(CN(C)C)c1O	> 100	> 100	> 100 µM	> 100 µM	> 100	> 100	> 100	> 100	> 100	> 100 µM	> 100	> 100				
CC(=O)Nc1ccc2c3c(cc(O)c2c1)N(C(=O)CCCCC(=O)Nc1ccc2c4c(cc(O)c2c1)N(C(=O)OC(C)(C)C)CC4CCl)CC3CCl (configuration not stated)	21.8	16.1	> 38.7 µM	4.1 µM	> 63.9	> 55.6	2.95	5.55	> 65.5	7.62 µM	4.59	> 34.6				
O=[N+]([O-])c1cccnc1NCC1(CO)CC(Cc2ccccc2)C1 (configuration not stated)	> 100	> 100	> 100 µM	> 100 µM	> 100	> 100	> 100	> 100	> 100	> 100 µM	> 100	> 100				
O=C(CC(C(=O)c1ccoc1)c1ccco1)c1ccco1 (configuration not stated)	> 100	> 100	> 100 µM	> 100 µM	> 100	> 100	> 100	> 100	> 100	> 100 µM	> 100	> 100				
COc1cccc(NC(=O)CC(=O)N2N=C(C)C(N=Nc3ccc(S(=O)(=O)c4ccc(N=NC5C(=O)N(C(=O)CC(=O)Nc6cccc(OC)c6)N=C5C)cc4)cc3)C2=O)c1 (configuration not stated)	> 100	> 100	> 100 µM	> 100 µM	> 100	> 100	> 100	> 100	> 100	> 100 µM	> 100	> 100				
CN(C)c1ccc(/C=C/C=C(/C#N)c2ccccc2)cc1	> 100	> 100	> 91.9 µM	> 65.7 µM	> 100	> 100	6.19	> 100	> 100	64.7 µM	76	> 74.3				
CC1(C)CC(=O)c2c(nc3ccc4ccccc4c3c2-c2ccc(NC(=O)CCC(=O)Nc3ccc(-c4c5c(nc6ccc7ccccc7c46)CC(C)(C)CC5=O)cc3)cc2)C1	> 100	> 100	> 100 µM	> 100 µM	> 100	> 100	> 100	> 100	> 100	> 100 µM	> 100	> 100				
COCc1cc2c(cc1/C=C/[N+](=O)[O-])OCO2	34	30.9	55.2 µM	41.2 µM	30.9	32.2	33.2	42.9	30.8	44.9 µM	31.9	67.9				
Cc1ccc(Nc2cc(=O)[nH]c(=S)[nH]2)cc1	> 100	> 100	> 100 µM	> 100 µM	> 100	> 100	> 100	> 100	> 100	> 100 µM	> 100	> 100				
CCCCOC(=O)C(O)Cc1ccoc1 (configuration not stated)	> 100	> 100	> 100 µM	> 100 µM	> 100	> 100	> 100	> 100	> 100	> 100 µM	> 100	> 100				
Clc1ccc(C2NN=C3c4ccccc4OCC32)cc1 (configuration not stated)	22.1	> 100	55.2 µM	3.63 µM	41.4	> 100	> 21.3	14.2	> 100	7.17 µM	> 100	27.6				
Cc1ccc2c(n1)C(=O)c1ccccc1C2=O	> 88.2	> 100	74.8 µM	52.4 µM	> 92.7	69	32.6	> 100	> 100	> 87.1 µM	92.4	53.1				
Cc1cccc2c1NC(=S)[C@@H]1CCCN1C2=O	> 100	> 100	> 100 µM	> 100 µM	> 100	> 100	> 100	> 100	> 100	> 100 µM	> 100	> 100				
O=C(N/N=C\c1ccc2ccccc2c1)Nc1ccc([N+](=O)[O-])cc1	> 59.8	> 63.8	> 66.1 µM	> 66.8 µM	> 59.3	> 85	> 100	> 100	> 55.9	> 69.7 µM	> 100	> 100				
CC1C[C@]2(C)C(=O)N(c3ccccc3)C(=N)[C@@H]2N(C)c2ccccc21 (some centres not stated)	> 100	> 100	> 100 µM	> 100 µM	> 100	> 100	> 100	> 100	> 100	> 100 µM	> 100	> 100				
COCCOCCOC1=C(Cl)C(=O)c2c(O)ccc(O)c2C1=O	3.7	3.5	5.99 µM	2.99 µM	4.83	25.5	3.83	35.4	3.25	3.69 µM	31.5	4.59				

Structure (SMILES)	TGI [1] [µM]	TGI [2] [µM]	TGI [3]	TGI [4]	TGI [5] [µM]	TGI [6] [µM]	TGI [7] [µM]	TGI [8] [µM]	TGI [9] [µM]	TGI [10]	TGI [11] [µM]	TGI [12] [µM]	GI50 [1]	GI50 [3]	GI50 [7]	GI50 [9] [µM]
Cn1c2ccccc2c(=NNc2ccc(C(=O)O)cc2)c2ccccc21	75.3	45.6	33.5 µM	27.2 µM	46.9	38.7	34.3	54	62.4	49.9 µM	56.5	24.1				
Nc1nc(Cl)cc(Nc2cc(Cl)cc(Cl)c2)n1	40.7	56.8	28.3 µM	24.3 µM	36.5	58.9	37.1	40.8	45	33.9 µM	39.5	32.3				
OC1COC(n2c3ccc(Br)cc3c3ccc4c5ccccc5[nH]c4c32)C(O)C1O (configuration not stated)	16	10.9	15.8 µM	11.3 µM	14.2	23.7	16.1	30.3	13.9	16.2 µM	14.3	10.4				
c1cc2c(c(-c3c4ccccc4nc4ccccc34)c1)CC1(CC2)OCCO1	> 100	> 100	> 100 µM	> 100 µM	> 100	> 100	> 100	> 100	> 100	> 100 µM	> 100	> 100				
O=S1C2=C(Cc3ccccc3)C(Cc3ccccc3)=C1CCc1cccc(c1)CC2	30.6	30.8	34 µM	27.6 µM	25.8	36.3	27.5	47.8	33.7	41 µM	27.8	28.1				
N#CC1(C#N)NC(c2ccsc2)C(C#N)(C#N)NC1c1ccsc1 (configuration not stated)	> 100	> 100	> 100 µM	> 100 µM	> 100	> 100	> 100	> 100	> 100	> 100 µM	> 100	> 100				
COC(=O)/N=[N+](\[O-])C(c1ccc(OC)cc1)C1CCCCC1 (configuration not stated)	11.3	16.3	38.3 µM	5.1 µM	21.5	34.9	26.4	26.9	25.9	> 48.3 µM	20.8	> 100				
C1=C\CCCCN2C[C@H]3CCCC/C=C\CCCCN4CC[C@@H]([C@H](CCCCCC/1)C4)[C@H](C3)C2	22.9	4.06	7.74 µM	3.33 µM	3.16	6.95	3.8	37	5.8	3.9 µM	5.46	3.22				
COc1ccc(N=C(Nc2ccc(OC)cc2)C(=Nc2ccc(OC)cc2)Nc2ccc(OC)cc2)cc1	> 100	> 100	> 100 µM	> 100 µM	> 100	> 100	> 100	> 100	> 100	> 100 µM	8.01	> 100				
COc1cc2c(cc1OC)CC(N=[N+]=[N-])c1cc(OC)c(OC)cc1/C=C\2 (configuration not stated)	> 100	> 100	55.8 µM	> 100 µM	> 100	> 100	> 100	> 100	> 100	> 100 µM	> 100	> 100				
COc1ccc(-c2cc(-c3cc(OC)c(OC)c(OC)c3)cc(-c3cc4ccccc4oc3=O)n2)cc1	49.7	16.3	16.3 µM	34.5 µM	24.7	60	> 100	22.2	21.1	7.88 µM	9.61	> 100				
CCOC(=O)CCC(NC(=O)c1ccc(N2CCN(c3c(C)nc(N)nc3N)CC2)cc1)C(=O)OCC (configuration not stated)	> 100	> 100	> 100 µM	> 100 µM	> 100	> 100	> 48.1	> 100	> 100	> 100 µM	> 100	> 100				
Brc1ccc2[nH]cc(-c3nc(-c4c[nH]c5ccccc45)cs3)c2c1	13.9	8.75	20.9 µM	3.73 µM	13.9	15.8	13.3	8.13	10.5	10.8 µM	25.1	4.68				
CNC(=S)N/N=C/c1cccc(C)n1	64.1	> 96.5	> 75.7 µM	> 86.2 µM	> 100	> 100	> 100	> 83.9	> 100	39.7 µM	90.9	> 73.8				
CCC(=O)O[C@H]1CC[C@H]2[C@@H]3CCC4=C/C(=N/NC(=O)c5cccc6c(=O)c7ccccc7[nH]c56)CC[C@]4(C)[C@H]3CC[C@]12C	> 25	> 25	> 25 µM	> 25 µM	> 25	> 25	> 25	> 25	> 25	> 25 µM	> 25	> 25				
O[C@@H]1C[C@@H]2N[C@@](O)(C[C@@H]2O)[C@H]1O	> 100	> 100	> 100 µM	> 100 µM	> 100	> 100	> 100	> 100	> 100	> 100 µM	> 100	> 100				
CCOc1ccc(NCc2cc(OC)c(OC)c(OC)c2)cc1	> 100	> 100	> 80.7 µM and 62.6 µM	1.78 µM and 2.55 µM	> 100	> 100	> 100	> 100	> 100	2.95 µM and 3.25 µM	> 100	> 84	1.41 µM and 7.91 µM	5.75 µM and 2.31 µM	0.0789 µM and 0.0919 µM	> 100
